# Measurements from patent US20070155802A1, “Fungicide composition comprising an arylamidine derivative and known fungicide compounds” (priority 2004, published 2007).
# Key:
# [1] = system: Wheat Powdery Mildew (Erysiphe graminis or blumeria graminis); assay: Open field trial on wheat, wheat powdery mildew, natural contamination; assay type: in vivo; settings: 20 days after application 2, BBCH73
# Protocol: (§1) They are intended to give an illustration of the efficacy of the composition according to the invention on several cereal diseases, in particular a composition combining compound (A), having as chemical name N-ethyl-N-methyl-N′-[4-(chloro-3-trifluoromethylphenoxy)-2,5-xylyl]formamidine, with a fungicide compound of the triazole type, namely prothioconazole. The trials on cereals were carried out in an open field.
# (§2) The objective of these field trials is therefore to test the efficacy of compounds (A), alone at 100 g/ha; 125 g/ha and 150 g/ha in combination with prothioconazole at 150 g a.i./ha; representing a class of fungicide compounds. Powdery mildew (Erysiphe graminis or blumeria graminis) and Septoria diseases (Mycosphaerella graminicola or Septoria tritici) are the principal diseases treated.
# (§3) The products tested are therefore • N-ethyl-N-methyl-N′-[4-(chloro-3-trifluorométhylphénoxy)-2,5-xylyl]-formamidine as compound (A) at 100 g/ha; 125 g/ha and 150 g/ha as an EC type formulation at 150 g/l; • prothioconazole as compound (B) at 150 g/ha as a formulation at 250 g/l; • compound (A) and prothioconazole combination at 100+150 g/ha as a fresh preparation; • compound (A) and prothioconazole combination at 125+150 g/ha as a fresh preparation; • compound (A) and prothioconazole combination at 150+150 g/ha as a fresh preparation; • the reference product is a mixture of epoxyconazole and pyraclostrobin (Opera® 1,51/ha recommended on Septoria tritici).
# (§4) Each trial comprises 3 repeats.
# (§5) Untreated control plots are included in the experimental design in order to measure the severity of the diseases.
# The trials were conducted under natural contamination conditions. The equipment for application of the different active ingredients is a constant compressed air pressure back sprayer. The spray nozzles have slits. […]
# The results were measured 20 days after the second application of the products onto wheat and are presented in table 2; for Erysiphe graminis, assessment 20 days after application 2 at stage BBCH73 by observations of Flag leaf-Flag-1-Flag-2.
# [2] = system: Wheat Leaf-spot (Septoria tritici or Mycosphaerella graminicola); assay: Open field trial on wheat, wheat leaf-spot, natural contamination; assay type: in vivo; settings: 30 days after application 2, BBCH73
# Protocol: as §1, §2, §3, §4, §5
# The trials were conducted under natural contamination conditions. The equipment for application of the different active ingredients is a constant compressed air pressure back sprayer. The spray nozzles have slits.
# The efficacy results were obtained from controls carried out in the field by overall evaluation of the percentage infestation.
# The results were measured 30 days after the second application and are presented in table 3; for Septoria tritici, assessment 30 days after application 2 at stage BBCH73 by observations of Flag leaf-Flag-1-Flag-2.
SMILES,% Efficacy observed (X) ([1]; 125 g ai/Ha),% Efficacy observed (X) ([1]; 150 g ai/Ha),% Efficacy observed (X) ([2]; 100 g ai/Ha),% Efficacy observed (X) ([2]; 125 g ai/Ha),% Efficacy observed (X) ([2]; 150 g ai/Ha)
CCN(C)C=Nc1cc(C)c(Oc2ccc(Cl)c(C(F)(F)F)c2)cc1C [Compound A],16%,14%,17%,19%,24%
"OC(Cc1ccccc1Cl)(Cn1nc[nH]c1=S)C1(Cl)CC1 (stereo not shown) [prothioconazole, reference compound]",–,71%,–,–,69%
